In PubChem BioAssay (NCI):
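Following 48 hours of exposure in 96-well plates, responses at five concentrations were used to interpolate endpoints linearly. TGI: concentration producing complete growth inhibition.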

Tests used:
Experiment in all cases: NCI-60 cell line screen, 48 h
NCI-H460 lung = tested on: NCI-H460 lung
U251 CNS = tested on: U251 CNS
SN12C renal = tested on: SN12C renal
MALME-3M melanoma = tested on: MALME-3M melanoma
SK-OV-3 ovarian = tested on: SK-OV-3 ovarian
K-562 leukemia = tested on: K-562 leukemia
HT29 colon = tested on: HT29 colon
UO-31 renal = tested on: UO-31 renal
786-0 renal = tested on: 786-0 renal
RXF 393 renal = tested on: RXF 393 renal
OVCAR-5 ovarian = tested on: OVCAR-5 ovarian
XF 498 CNS = tested on: XF 498 CNS
SF-295 CNS = tested on: SF-295 CNS
SNB-78 CNS = tested on: SNB-78 CNS
SW-620 colon = tested on: SW-620 colon
CAKI-1 renal = tested on: CAKI-1 renal
HOP-92 NSCLC = tested on: HOP-92 NSCLC
IGROV1 ovarian = tested on: IGROV1 ovarian
SNB-75 CNS = tested on: SNB-75 CNS
HCT-116 colon = tested on: HCT-116 colon
KM20L2 colon = tested on: KM20L2 colon
LOX IMVI melanoma = tested on: LOX IMVI melanoma
DMS 273 small cell lung = tested on: DMS 273 small cell lung
SK-MEL-2 melanoma = tested on: SK-MEL-2 melanoma
UACC-257 melanoma = tested on: UACC-257 melanoma
COLO 205 colon = tested on: COLO 205 colon
SF-539 CNS = tested on: SF-539 CNS
HCT-15 colon = tested on: HCT-15 colon
ACHN renal = tested on: ACHN renal
HCC-2998 colon = tested on: HCC-2998 colon
RXF-631 renal = tested on: RXF-631 renal
A498 renal = tested on: A498 renal
HL-60(TB) leukemia = tested on: HL-60(TB) leukemia
NCI-H226 lung = tested on: NCI-H226 lung
DMS 114 small cell lung = tested on: DMS 114 small cell lung
UACC-62 melanoma = tested on: UACC-62 melanoma
LXFL 529 NSCLC = tested on: LXFL 529 NSCLC
OVCAR-3 ovarian = tested on: OVCAR-3 ovarian
NCI-H23 lung = tested on: NCI-H23 lung
SR leukemia = tested on: SR leukemia
CCRF-CEM leukemia = tested on: CCRF-CEM leukemia
RPMI-8226 leukemia = tested on: RPMI-8226 leukemia
OVCAR-8 ovarian = tested on: OVCAR-8 ovarian
DLD-1 colon = tested on: DLD-1 colon
M14 melanoma = tested on: M14 melanoma
EKVX NSCLC = tested on: EKVX NSCLC
HOP-62 NSCLC = tested on: HOP-62 NSCLC
SK-MEL-28 melanoma = tested on: SK-MEL-28 melanoma
A549 NSCLC = tested on: A549 NSCLC
HOP-18 NSCLC = tested on: HOP-18 NSCLC
M19-MEL melanoma = tested on: M19-MEL melanoma
SF-268 CNS = tested on: SF-268 CNS
KM12 colon = tested on: KM12 colon
SK-MEL-5 melanoma = tested on: SK-MEL-5 melanoma
OVCAR-4 ovarian = tested on: OVCAR-4 ovarian
MOLT-4 leukemia = tested on: MOLT-4 leukemia
TK-10 renal = tested on: TK-10 renal
SNB-19 CNS = tested on: SNB-19 CNS
NCI-H522 lung = tested on: NCI-H522 lung

Measured: TGI

Cc1ccc(/C=N/NS(=O)(=O)c2ccccc2)c(C)c1
> 100 µM: NCI-H460 lung | U251 CNS | SN12C renal | MALME-3M melanoma | SK-OV-3 ovarian | K-562 leukemia | HT29 colon | UO-31 renal | 786-0 renal | RXF 393 renal | OVCAR-5 ovarian | XF 498 CNS | SF-295 CNS | SNB-78 CNS | SW-620 colon | CAKI-1 renal | HOP-92 NSCLC | IGROV1 ovarian | SNB-75 CNS | HCT-116 colon | KM20L2 colon | LOX IMVI melanoma | DMS 273 small cell lung | SK-MEL-2 melanoma | UACC-257 melanoma | COLO 205 colon | SF-539 CNS | HCT-15 colon | ACHN renal | HCC-2998 colon | RXF-631 renal | A498 renal | HL-60(TB) leukemia | NCI-H226 lung | DMS 114 small cell lung | UACC-62 melanoma | LXFL 529 NSCLC | OVCAR-3 ovarian | NCI-H23 lung | SR leukemia | CCRF-CEM leukemia | RPMI-8226 leukemia | OVCAR-8 ovarian | DLD-1 colon | M14 melanoma | EKVX NSCLC | HOP-62 NSCLC | SK-MEL-28 melanoma | A549 NSCLC | HOP-18 NSCLC | M19-MEL melanoma | SF-268 CNS | KM12 colon | SK-MEL-5 melanoma | OVCAR-4 ovarian | MOLT-4 leukemia | TK-10 renal

CCCCCCCCCCCCCCCCCC(=O)NCC(COP(=O)(O)O)OCC (configuration not stated)
46.4 µM: SN12C renal
58.3 µM: KM12 colon
83.2 µM: UO-31 renal
82.5 µM: SNB-75 CNS
58.4 µM: NCI-H226 lung
83.3 µM: SNB-78 CNS
37.5 µM: SF-295 CNS
42.4 µM: HOP-92 NSCLC
77.2 µM: RXF-631 renal
90.2 µM: SNB-19 CNS
> 100 µM: MALME-3M melanoma | SK-OV-3 ovarian | K-562 leukemia | HT29 colon | 786-0 renal | XF 498 CNS | SW-620 colon | CAKI-1 renal | IGROV1 ovarian | HCT-116 colon | DMS 273 small cell lung | SK-MEL-2 melanoma | UACC-257 melanoma | COLO 205 colon | SF-539 CNS | HCC-2998 colon | A498 renal | HL-60(TB) leukemia | DMS 114 small cell lung | UACC-62 melanoma | LXFL 529 NSCLC | OVCAR-3 ovarian | SR leukemia | CCRF-CEM leukemia | RPMI-8226 leukemia | OVCAR-8 ovarian | DLD-1 colon | M14 melanoma | NCI-H522 lung | EKVX NSCLC | SK-MEL-28 melanoma | A549 NSCLC | M19-MEL melanoma | SK-MEL-5 melanoma | OVCAR-4 ovarian | MOLT-4 leukemia | TK-10 renal
30.1 µM: NCI-H23 lung
61.2 µM: SF-268 CNS
54.5 µM: HOP-62 NSCLC
